Measurements published in patent US8193175B2, “Ruthenium complexes for treating cancers” (Universite de Strasbourg, priority 2004, dated 2012).

What was measured:
RDM4 [1] = assay: Apoptosis by marking with Annexin-V on RDM4; type: cell-based, mouse
Experimental: Cell death is measured by a first specific marking of the apoptosis. The externalisation of the anionic phospholipids, normally located on the inner layer of the plasmic membrane, is one of the precocious markers of apoptosis (Martin et al, 1996). Annexin-V is a protein which fixes specifically onto the phosphatidylserines in the presence of calcium. When Annexin-V is coupled to a fluorochrome, it makes it possible to quantify the apoptotic cells by flux cytometry.
The control cells are treated with the equivalent volume of solvent (ethanol). […] After 72 hrs, the apoptosis rate is still as low as that of the control cells. On the other hand, with treatment at 45 μM, this rate already reaches 70% at 24 hrs and exceeds 99% after 48 hrs—a sign of significant apoptosis induction.

RDM4 [2] = assay: DNA fragmentation by marking with propidium iodure on RDM4; type: cell-based, mouse
Excerpt: A second specific marking of apoptosis is the fragmentation of DNA between the nucleosomes. The fragmented DNA is located in the apoptotic bodies in the terminal phase of apoptosis. This DNA is hypodiploid and so less in quantity than that present in normal cells. It can be quantified by flux cytometry after permeabilisation of the cell membranes and marking with PI. The quantity of DNA in a normal cell is 2n in the G0/G1 phase and 4n in the G2 phase. Therefore, the sub-G0 DNA in a quantity of less than 2n has a weaker fluorescence intensity.
This phenomenon tends to diminish after 48 hrs of treatment. On the other hand, when the cells are treated with 45 μM, the formation of hypodiploid particles, visualised by the sub-G0 DNA content, is less than 10% at 24 hrs and exceeds 50% at 48 hrs such as to reach 60% at 72 hrs. […] The quantity of hypodiploid particles in the control cells remains less than 4% over this same period.

TK6 and NH32 cells = assay: Apoptosis by marking with Annexin-V on TK6 and NH32 cells; type: cell-based, human; details: 1.5 μM
Experimental: The toxicity of the organoruthenium complex on the TK6 and NH32 lymphoblastoid cells is measured with Annexin-V—a specific marker of precocious apoptosis. This marking is implemented on cells treated with derivative 11 at 1.5 μM after 0 hrs, 24 hrs, 48 hrs, 72 hrs and 96 hrs. […] Beyond 72 hrs, the apoptosis reaches the maximum limit of 90% and forms a plateau. In the control cells, the apoptosis rate remains less than 10% for the whole of the experiment. The increase over time of the externalisation of the anionic phospholipids is similar in the two cell lines, but the TK6 cells enter into apoptosis with a delay of a dozen hours on their p53-deficient variants. The NH32 line reaches the limit formed by the 90% plateau earlier than the TK6 cells. The p53 protein seems to slow down activation of the precocious signs of apoptosis induced by the Ru complexes.

[3] = Preliminary toxicity experiment on healthy SWISS mice; type: in vivo; details: small number of healthy SWISS mice

In the case of “[Ru(C6H4-2-C5H4N)(phen)(NCMe)2]PF6 [Compound 11]”, the “apoptosis rate (Annexin-V)” value (RDM4 [1]; 15 μM, up to 72 hrs) is reported as “does not shown any effect”, the “apoptosis rate (Annexin-V)” value (RDM4 [1]; 45 μM, 24 hrs) is reported as 70% and the “cell cycle distribution (propidium iodure)” value (RDM4 [2]; 15 μM, first two days) is reported as “accumulation in the G0/G1 phase”. For the same substance, the “hypodiploid particles (sub-G0 DNA content)” value (RDM4 [2]; 45 μM, 72 hrs) was 60%, the “externalisation of the phosphatidylserines (Annexin-V)” value (TK6 and NH32 cells; 48 hrs) was “exceeds 50%” and the “externalisation of the phosphatidylserines (Annexin-V)” value (TK6 and NH32 cells; 72 hrs of continuous treatment) was 90%. For the same substance, the apparent toxicity [3] was “lack of apparent toxicity”.
